One assay has as its target T1, Cathepsin K (Homo sapiens, UniProt P43235).
T1 sequence (P43235 115-329): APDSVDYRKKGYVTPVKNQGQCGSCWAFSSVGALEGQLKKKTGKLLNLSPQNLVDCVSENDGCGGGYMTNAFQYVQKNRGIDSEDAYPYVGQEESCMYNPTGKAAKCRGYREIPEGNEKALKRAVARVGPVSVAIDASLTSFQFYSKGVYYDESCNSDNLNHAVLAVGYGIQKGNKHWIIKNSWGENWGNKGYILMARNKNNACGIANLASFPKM
The assay is described as follows: Cathepsin K inhibitory activity. The format is biochemical.

A further assay concerns the target MDM2 (Homo sapiens, UniProt Q00987). The assay is described as follows: MDM2 binding assay (fluorescence polarization). The settings on record: for Inhibition (200 μM, %): 200 μM compound; for inhibition at 200 µM: read-out: Inhibition (200 μM, %), 200 μM compound. The protocol: The MDM2 binding tests of all 17 compounds were carried out by a fluorescence polarization assay.
30 nM preincubated (30 min) MDM2 and 10 nM PMDM-F peptide in reaction buffer (100 μL, potassium phosphate, 100 mM; bovine gamma globulin, […]; sodium azide, 0.02%) were added into a 96-well plate containing tested compounds at pH 7.5. […] The Ki values were calculated according to a reported method.
In general terms: Fluorescence polarisation rises when a labelled molecule tumbles more slowly, as on binding a larger partner.

Where two headings read alike, the source gives them in different places.

MDM2, sequence (Q00987 whole entry): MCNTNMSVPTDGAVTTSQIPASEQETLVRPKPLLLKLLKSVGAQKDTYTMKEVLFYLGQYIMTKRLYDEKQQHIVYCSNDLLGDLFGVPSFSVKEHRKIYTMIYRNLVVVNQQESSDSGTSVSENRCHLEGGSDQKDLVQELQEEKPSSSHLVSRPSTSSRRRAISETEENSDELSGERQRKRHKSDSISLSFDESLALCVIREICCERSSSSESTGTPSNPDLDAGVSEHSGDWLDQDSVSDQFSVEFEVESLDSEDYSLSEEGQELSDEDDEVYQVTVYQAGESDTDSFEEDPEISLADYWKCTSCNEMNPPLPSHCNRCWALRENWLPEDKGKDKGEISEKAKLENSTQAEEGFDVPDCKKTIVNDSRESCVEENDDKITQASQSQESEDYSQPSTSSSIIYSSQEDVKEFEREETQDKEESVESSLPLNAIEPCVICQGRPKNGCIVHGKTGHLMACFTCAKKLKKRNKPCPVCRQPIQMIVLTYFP

As usually defined, the IC50 is the point on the concentration scale where inhibition reaches its midpoint. As a reminder, the Ki is the dissociation constant of the complex between target and ligand, obtained from inhibition or displacement. As usually defined, the inhibition is the percentage by which the read-out fell short of the control. Regarding `CCOC(=O)c1cc(C(C)c2ccccc2)sc1NC(=O)c1cccc(COc2ccccc2Cl)c1` (stereo not shown) [Compound 1, Ethyl 2-({3-[(2-chlorophenoxy)methyl]benzoyl}amino)-5-(1-phenylethyl)-3-thiophenecarboxylate], the IC50 at Cathepsin K (read-out: Cathepsin K IC50) was > 200 µM. On MDM2, the affinity corresponds to a Ki of 43.5 µM and the inhibition at 200 µM was > 80%. Besides, the “Inhibition (200 μM, %)” value at MDM2 (200 µM) amounted to 80.2%.
As to `O=c1nc(SCc2nc3ccccc3n2Cc2ccccc2)[nH]c2ccccc12` [Compound 3, 2-{[(1-benzyl-1H-benzimidazol-2-yl)methyl]sulfanyl}-4(1H)-quinazolinone], on Cathepsin K (read-out: Cathepsin K IC50), the IC50 was > 200 µM. At MDM2, the Ki was determined as 104 µM and the inhibition at 200 µM was 62.4%.
Take `CC(C)N(C(=O)Cn1c(COc2ccc3ccccc3c2)nc2ccccc21)c1ccccc1` [Compound 4, N-isopropyl-2-{2-[(2-naphthyloxy)methyl]-1H-benzimidazol-1-yl}-N-phenylacetamide]: the IC50 on Cathepsin K (read-out: Cathepsin K IC50) is > 200 µM. Moreover, at MDM2, the Ki turned out to be 99.5 µM and the inhibition at 200 µM was determined as 76.3%.
As to `CCOC(=O)/C=C1\NC(C)(C)Cc2cc(OC)c(OC)cc21` [Compound 6, Ethyl (6,7-dimethoxy-3,3-dimethyl-3,4-dihydro-1(2H)-isoquinolinylidene)acetate], the IC50 on Cathepsin K (read-out: Cathepsin K IC50) was > 200 µM. On MDM2, the Ki is > 200 µM and the inhibition at 200 µM is < 50%. In addition, the “Inhibition (200 μM, %)” value on MDM2 (200 µM) was 46.6%.
`CCc1nnc(NC(=O)CSc2nnc(COc3ccccc3)n2-c2ccc(C)cc2)s1` [Compound 7, N-(5-ethyl-1,3,4-thiadiazol-2-yl)-2-{[4-(4-methylphenyl)-5-(phenoxymethyl)-4H-1,2,4-triazol-3-yl]sulfanyl}acetamide]: on Cathepsin K (read-out: Cathepsin K IC50), the IC50 is > 200 µM. At MDM2, affinity was put at a Ki of 98.3 µM and the inhibition at 200 µM is 63.7%.
Take `O=C(c1cc2n(n1)C(C(F)(F)F)CC(c1ccc(Br)cc1)N2)N(Cc1ccccc1)c1ccccc1` (stereo not shown) [Compound 9, N-benzyl-5-(4-bromophenyl)-N-phenyl-7-(trifluoromethyl)-4,5,6,7-tetrahydropyrazolo[1,5-a]pyrimidine-2-carboxamide]: the IC50 at Cathepsin K (read-out: Cathepsin K IC50) is > 200 µM. Besides, on MDM2, the Ki is > 200 µM and the inhibition at 200 µM is < 50%. Further, the “Inhibition (200 μM, %)” value at MDM2 (200 µM) is recorded as 37.6%.
As for `COc1ccc(OCc2nnc3sc(COc4ccccc4Cl)nn23)cc1` [Compound 11, 6-[(2-chlorophenoxy)methyl]-3-[(4-methoxyphenoxy)methyl][1,2,4]triazolo[3,4-b][1,3,4]thiadiazole], the IC50 on Cathepsin K (read-out: Cathepsin K IC50) is > 200 µM. Also, on MDM2, the Ki was > 200 µM and the inhibition at 200 µM is < 50%. The “Inhibition (200 μM, %)” value on MDM2 (200 µM) came out at 32.3%.
As for `[N-]=[N+]=CC(=O)C(O)(c1ccccc1)C(Cl)c1ccccc1` (stereo not shown) [Compound 12, 4-chloro-1-diazo-3-hydroxy-3,4-diphenyl-2-butanone], the IC50 at Cathepsin K (read-out: Cathepsin K IC50) is > 200 µM. Also, on MDM2, the Ki was > 200 µM. Besides, the “Inhibition (200 μM, %)” value at MDM2 (200 µM) is given as 18.8%; at MDM2 (listed as AB-131/42300827, 200 µM) it was < 50%.
As for `COC(=O)C1C(CBr)N1N1C(=O)c2ccccc2C1=O` (stereo not shown) [Compound 13, Methyl 3-(bromomethyl)-1-(1,3-dioxo-1,3-dihydro-2H-isoindol-2-yl)-2-aziridinecarboxylate], the IC50 at Cathepsin K is > 200 µM. Also, on MDM2, the Ki is > 200 µM and the inhibition at 200 µM is < 50%. Further, the “Inhibition (200 μM, %)” value at MDM2 (200 µM) worked out at 42.9%.
For `CCOC(=O)c1nnn(-c2nonc2N)c1CNc1ccccc1` [Compound 14, Ethyl 1-(4-amino-1,2,5-oxadiazol-3-yl)-5-(anilinomethyl)-1H-1,2,3-triazole-4-carboxylate], at Cathepsin K (read-out: Cathepsin K IC50), the 50% inhibitory concentration (IC50) was > 200 µM. Moreover, at MDM2, the Ki turned out to be 127 µM and the inhibition at 200 µM turned out to be 68.6%.
`CC(C)(F)C[C@H](N[C@@H](c1ccc(-c2ccc(S(C)(=O)=O)cc2)cc1)C(F)(F)F)C(=O)NC1(C#N)CC1` [Odancatib, reference compound]: the IC50 on Cathepsin K (read-out: Cathepsin K IC50) was 0.001 µM.

The values are drawn from publication PMC8369186, “Ligand-Based and Docking-Based Virtual Screening of MDM2 Inhibitors as Potent Anticancer Agents” (Computational and Mathematical Methods in Medicine, 2021).
